In patent US9884832B2 (priority 2011, dated 2018):
Like-named read-outs stand apart in the source and are kept apart here.

Legend:
[1] = target: AM2 V27A (valine→alanine mutation at residue 27 in the M2 protein) (Influenza A virus, UniProt P0DOF5, V27A); type: cell-based, influenza virus A/Udorn/72
[2] = target: AM2 S31N (serine→asparagine mutation at residue 31 in the M2 protein) (Influenza A virus, UniProt P0DOF5, S31N); type: cell-based, influenza virus A/Udorn/72

| Compound | V27A OOcyte Inhibition at 100 uM (%) ([1]; pH 5.5) | S31N OOcyte Inhibition at 100 uM (%) ([2]; pH 5.5) | V27A OOcyte Inhibition at 100 uM (%) [1] | S31N OOcyte Inhibition at 100 uM (%) [2] |
| --- | --- | --- | --- | --- |
| Oc1ccc(CNC23CC4CCC(CC(C4)C2)C3)c(O)c1 [Example 110, 4-(Tricyclo[4.3.1.13,8]undec-1-ylaminomethyl)-benzene-1,3-diol] | A (key: (A)=31-95%; (B)=0-30%) | A (key: (A)=31-95%; (B)=0-30%) | – | – |
| COc1ccc(-c2cc(CNC34CC5CC(CC(C5)C3)C4)no2)cc1 [Example 110a, N-((5-(4-methoxyphenyl)isoxazol-3-yl)methyl)adamantan-1-amine] | – | – | B (key: (A)=31-95%; (B)=0-30%) | A (key: (A)=31-95%; (B)=0-30%) |
| Oc1ccc(CNC23CC4CC(CC2C4)C3)c(O)c1 [Example 111, 4-[(Hexahydro-2,5-methano-pentalen-3a-ylamino)-methyl]-benzene-1,3-diol] | B (key: (A)=31-95%; (B)=0-30%) | A (key: (A)=31-95%; (B)=0-30%) | – | – |
| CC(C)(C)CC(C)(C)NCc1ccc(O)cc1O [Example 112, 4-[(1,1,3,3-Tetramethyl-butylamino)-methyl]-benzene-1,3-diol] | A (key: (A)=31-95%; (B)=0-30%) | B (key: (A)=31-95%; (B)=0-30%) | – | – |
| CSc1ccc(-c2ccc(CNC34CC5CC(CC(C5)C3)C4)s2)cc1 [Example 112a, N-((5-(4-(methylthio)phenyl)thiophen-2-yl)methyl)adamantan-1-amine] | – | – | B (key: (A)=31-95%; (B)=0-30%) | A (key: (A)=31-95%; (B)=0-30%) |
| C[Si](C)(C)CCCNCc1ccc(O)cc1O [Example 113, 4-[(3-Trimethylsilanyl-propylamino)-methyl]-benzene-1,3-diol] | B (key: (A)=31-95%; (B)=0-30%) | B (key: (A)=31-95%; (B)=0-30%) | – | – |
| COc1ccc(-c2ccc(CNC34CC5CC(CC(C5)C3)C4)s2)cc1 [Example 113a, N-((5-(4-methoxyphenyl)thiophen-2-yl)methyl)adamantan-1-amine] | – | – | B (key: (A)=31-95%; (B)=0-30%) | A (key: (A)=31-95%; (B)=0-30%) |
| CC1(C)C2CCC(CNCc3ccc(O)cc3O)C1C2 (stereo not drawn) [Example 114, 4-{[(6,6-Dimethyl-bicyclo[3.1.1]hept-2-ylmethyl)-amino]methyl}-benzene-1,3-diol] | B (key: (A)=31-95%; (B)=0-30%) | B (key: (A)=31-95%; (B)=0-30%) | – | – |
| Oc1ccc(CN2CCC3(CCCCC3)CC2)c(O)c1 [Example 115, 4-(3-Aza-spiro[5.5]undec-3-ylmethyl)-benzene-1,3-diol] | B (key: (A)=31-95%; (B)=0-30%) | B (key: (A)=31-95%; (B)=0-30%) | – | – |
| c1ccc(-c2nnc(CNC34CC5CC(CC(C5)C3)C4)o2)cc1 [Example 115a, N-((5-phenyl-1,3,4-oxadiazol-2-yl)methyl)adamantan-1-amine] | – | – | B (key: (A)=31-95%; (B)=0-30%) | A (key: (A)=31-95%; (B)=0-30%) |
| Oc1ccc(CN2CC3CC4CC(C3)CC2C4)c(O)c1 [Example 116, 4-(4-Aza-tricyclo[4.3.1.13,8]undec-4-ylmethyl)-benzene-1,3-diol] | A (key: (A)=31-95%; (B)=0-30%) | B (key: (A)=31-95%; (B)=0-30%) | – | – |
| c1ccc(-c2cc(CNC34CC5CC(CC(C5)C3)C4)no2)cc1 [Example 116a, N-((5-phenylisoxazol-3-yl)methyl)adamantan-1-amine] | – | – | B (key: (A)=31-95%; (B)=0-30%) | A (key: (A)=31-95%; (B)=0-30%) |
| COc1ccc(-c2nnc(CNC34CC5CC(CC(C5)C3)C4)o2)cc1 [Example 127a, N-((5-(4-methoxyphenyl)-1,3,4-oxadiazol-2-yl)methyl)adamantan-1-amine] | – | – | B (key: (A)=31-95%; (B)=0-30%) | A (key: (A)=31-95%; (B)=0-30%) |
| c1coc(-c2ccc(CNC34CC5CC(CC(C5)C3)C4)s2)c1 [Example 136a, N-((5-(Furan-2-yl)thiophen-2-yl)methyl)adamantan-1-amine] | – | – | B (key: (A)=31-95%; (B)=0-30%) | A (key: (A)=31-95%; (B)=0-30%) |
| c1cc(-c2ccc(CNC34CC5CC(CC(C5)C3)C4)s2)co1 [Example 137a, N-((5-(Furan-3-yl)thiophen-2-yl)methyl)adamantan-1-amine] | – | – | B (key: (A)=31-95%; (B)=0-30%) | A (key: (A)=31-95%; (B)=0-30%) |
| c1csc(-c2csc(CNC34CC5CC(CC(C5)C3)C4)c2)c1 [Example 140a, Adamantan-1-yl-[2,3′]bithiophenyl-5′-ylmethyl-amine] | – | – | A (key: (A)=31-95%; (B)=0-30%) | A (key: (A)=31-95%; (B)=0-30%) |
| Cc1ccc(-c2ccc(CNC34CC5CC(CC(C5)C3)C4)s2)s1 [Example 141a, N-((5′-methyl-[2,2′-bithiophen]-5-yl)methyl)adamantan-1-amine] | – | – | B (key: (A)=31-95%; (B)=0-30%) | A (key: (A)=31-95%; (B)=0-30%) |

| Compound | V27A OOcyte Inhibition at 100 uM (%) ([1]; pH 5.5) | S31N OOcyte Inhibition at 100 uM (%) ([2]; pH 5.5) | V27A OOcyte Inhibition at 100 uM (%) [1] | S31N OOcyte Inhibition at 100 uM (%) [2] |
| --- | --- | --- | --- | --- |
| c1csc(-c2cc(CNC34CC5CC(CC(C5)C3)C4)no2)c1 [Example 142a, N-((5-(thiophen-2-yl)isoxazol-3-yl)methyl)adamantan-1-amine] | – | – | B (key: (A)=31-95%; (B)=0-30%) | A (key: (A)=31-95%; (B)=0-30%) |
| c1cc(-c2nc(CNC34CC5CC(CC(C5)C3)C4)no2)cs1 [Example 143a, N-((5-(thiophen-3-yl)-1,2,4-oxadiazol-3-yl)methyl)adamantan-1-amine] | – | – | B (key: (A)=31-95%; (B)=0-30%) | A (key: (A)=31-95%; (B)=0-30%) |
| c1csc(-c2ncc(CNC34CC5CC(CC(C5)C3)C4)s2)c1 [Example 144a, N-((2-(thiophen-2-yl)thiazol-5-yl)methyl)adamantan-1-amine] | – | – | B (key: (A)=31-95%; (B)=0-30%) | A (key: (A)=31-95%; (B)=0-30%) |
| c1cc(-c2csc(CNC34CC5CC(CC(C5)C3)C4)c2)cs1 [Example 152a, N-([3,3′-bithiophen]-5-ylmethyl)adamantan-1-amine] | – | – | A (key: (A)=31-95%; (B)=0-30%) | B (key: (A)=31-95%; (B)=0-30%) |
| c1coc(-c2cc(CNC34CC5CC(CC(C5)C3)C4)no2)c1 [Example 153a, N-((5-(furan-2-yl)isoxazol-3-yl)methyl)adamantan-1-amine] | – | – | B (key: (A)=31-95%; (B)=0-30%) | A (key: (A)=31-95%; (B)=0-30%) |
| Cc1ncc(-c2ccc(CNC34CC5CC(CC(C5)C3)C4)s2)s1 [Example 154a, N-((5-(2-methylthiazol-5-yl)thiophen-2-yl)methyl)adamantan-1-amine] | – | – | A (key: (A)=31-95%; (B)=0-30%) | A (key: (A)=31-95%; (B)=0-30%) |
| Cn1cc(C(F)(F)F)c(-c2ccc(CNC34CC5CC(CC(C5)C3)C4)s2)n1 [Example 155a, N-((5-(1-methyl-4-(trifluoromethyl)-1H-pyrazol-3-yl)thiophen-2-yl)methyl)adamantan-1-amine] | – | – | B (key: (A)=31-95%; (B)=0-30%) | B (key: (A)=31-95%; (B)=0-30%) |
| Cc1nc(-c2ccc(CNC34CC5CC(CC(C5)C3)C4)s2)cs1 [Example 156a, N-((5-(2-methylthiazol-4-yl)thiophen-2-yl)methyl)adamantan-1-amine] | – | – | A (key: (A)=31-95%; (B)=0-30%) | A (key: (A)=31-95%; (B)=0-30%) |
| c1csc(-c2ccc(-c3ccc(CNC45CC6CC(CC(C6)C4)C5)s3)s2)c1 [Example 157a, N-([2,2′:5′,2″-terthiophen]-5-ylmethyl)adamantan-1-amine] | – | – | B (key: (A)=31-95%; (B)=0-30%) | B (key: (A)=31-95%; (B)=0-30%) |
| c1cc(-c2ccc(CNC34CC5CC(CC(C5)C3)C4)s2)[nH]n1 [Example 158a, N-((5-(1H-pyrazol-5-yl)thiophen-2-yl)methyl)adamantan-1-amine] | – | – | A (key: (A)=31-95%; (B)=0-30%) | A (key: (A)=31-95%; (B)=0-30%) |
| Brc1ccc(-c2ccc(CNC34CC5CC(CC(C5)C3)C4)s2)s1 [Example 159a, N-((5′-bromo-[2,2′-bithiophen]-5-yl)methyl)adamantan-1-amine] | – | – | B (key: (A)=31-95%; (B)=0-30%) | A (key: (A)=31-95%; (B)=0-30%) |
| c1cc(-c2ccc(CNC34CC5CC(CC(C5)C3)C4)o2)[nH]n1 [Example 162a, N-((5-(1H-pyrazol-5-yl)furan-2-yl)methyl)adamantan-1-amine] | – | – | B (key: (A)=31-95%; (B)=0-30%) | B (key: (A)=31-95%; (B)=0-30%) |
| O=c1[nH]cc(CNC23CC4CC(CC(C4)C2)C3)c(=O)[nH]1 [Example 169a, 5-((adamantan-1-ylamino)methyl)pyrimidine-2,4(1H,3H)-dione] | – | – | B (key: (A)=31-95%; (B)=0-30%) | B (key: (A)=31-95%; (B)=0-30%) |
| OC1CCC(CNC23CC4CC(CC(C4)C2)C3)CC1 (stereo not drawn) [Example 170a, 4-(Adamantan-1-ylaminomethyl)-cyclohexanol] | – | – | B (key: (A)=31-95%; (B)=0-30%) | B (key: (A)=31-95%; (B)=0-30%) |
| c1scc2[nH]c(CNC34CC5CC(CC(C5)C3)C4)nc12 [Example 171a, Adamantan-1-yl-(1H-thieno[3,4-d]imidazol-2-ylmethyl)-amine] | – | – | B (key: (A)=31-95%; (B)=0-30%) | A (key: (A)=31-95%; (B)=0-30%) |
| Cn1c(CNC23CC4CC(CC(C4)C2)C3)cc2sccc21 [Example 172a, Adamantan-1-yl-(4-methyl-4H-thieno[3,2-b]pyrrol-5-ylmethyl)-amine] | – | – | B (key: (A)=31-95%; (B)=0-30%) | B (key: (A)=31-95%; (B)=0-30%) |
